According to PubChem BioAssay (NCI):
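A five-concentration, 48-hour dose response in 96-well plates underlies each endpoint, interpolated linearly between surrounding concentrations. At the GI50, growth is halved. TGI is the concentration that stops growth completely.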

Columns and labels:
Test in all cases: NCI tumour cell line growth inhibition, 48 h
K-562 leukemia = system: K-562 leukemia
UACC-257 melanoma = system: UACC-257 melanoma
SNB-75 CNS = system: SNB-75 CNS
HL-60(TB) leukemia = system: HL-60(TB) leukemia
MOLT-4 leukemia = system: MOLT-4 leukemia
HT29 colon = system: HT29 colon
CCRF-CEM leukemia = system: CCRF-CEM leukemia
SF-268 CNS = system: SF-268 CNS
IGROV1 ovarian = system: IGROV1 ovarian
LOX IMVI melanoma = system: LOX IMVI melanoma
SNB-19 CNS = system: SNB-19 CNS
SK-OV-3 ovarian = system: SK-OV-3 ovarian
SF-295 CNS = system: SF-295 CNS
MCF7 breast = system: MCF7 breast
HCC-2998 colon = system: HCC-2998 colon
HCT-116 colon = system: HCT-116 colon
COLO 205 colon = system: COLO 205 colon
NCI-H522 lung = system: NCI-H522 lung
HOP-92 NSCLC = system: HOP-92 NSCLC
MDA-MB-231 breast = system: MDA-MB-231 breast
UACC-62 melanoma = system: UACC-62 melanoma
SF-539 CNS = system: SF-539 CNS
UO-31 renal = system: UO-31 renal
CAKI-1 renal = system: CAKI-1 renal
OVCAR-8 ovarian = system: OVCAR-8 ovarian
M14 melanoma = system: M14 melanoma
OVCAR-4 ovarian = system: OVCAR-4 ovarian
NCI-H460 lung = system: NCI-H460 lung
HCT-15 colon = system: HCT-15 colon
786-0 renal = system: 786-0 renal
SK-MEL-28 melanoma = system: SK-MEL-28 melanoma
KM12 colon = system: KM12 colon
MALME-3M melanoma = system: MALME-3M melanoma
SK-MEL-2 melanoma = system: SK-MEL-2 melanoma
RXF 393 renal = system: RXF 393 renal
HS 578T breast = system: HS 578T breast
SR leukemia = system: SR leukemia
SW-620 colon = system: SW-620 colon
MDA-MB-435 = system: MDA-MB-435
OVCAR-5 ovarian = system: OVCAR-5 ovarian
RPMI-8226 leukemia = system: RPMI-8226 leukemia
PC-3 prostate = system: PC-3 prostate
U251 CNS = system: U251 CNS
BT-549 breast = system: BT-549 breast
TK-10 renal = system: TK-10 renal
NCI-H23 lung = system: NCI-H23 lung
ACHN renal = system: ACHN renal
A498 renal = system: A498 renal
DU-145 prostate = system: DU-145 prostate
NCI/ADR-RES ovarian = system: NCI/ADR-RES ovarian
SK-MEL-5 melanoma = system: SK-MEL-5 melanoma
A549 NSCLC = system: A549 NSCLC
SN12C renal = system: SN12C renal
NCI-H226 lung = system: NCI-H226 lung
OVCAR-3 ovarian = system: OVCAR-3 ovarian
T-47D breast = system: T-47D breast
HOP-62 NSCLC = system: HOP-62 NSCLC
EKVX NSCLC = system: EKVX NSCLC

With `O=C(Nc1cccc(Cl)c1)Nc1nc2ccc([N+](=O)[O-])cc2s1` the GI50 (K-562 leukemia) was 355 nM, the TGI (K-562 leukemia) was 1420 nM and the GI50 (UACC-257 melanoma) was 532 nM. The TGI (UACC-257 melanoma) was 3.49 µM, the GI50 (SNB-75 CNS) was 539 nM and the TGI (SNB-75 CNS) was 3.17 µM. For the same compound, the GI50 (HL-60(TB) leukemia) was 365 nM, the TGI (HL-60(TB) leukemia) was 1510 nM and the GI50 (MOLT-4 leukemia) was 375 nM. The TGI (MOLT-4 leukemia) was 2340 nM, the GI50 (HT29 colon) was 2820 nM and the TGI (HT29 colon) was 10.7 µM. For the same compound, the GI50 (CCRF-CEM leukemia) was 375 nM, the TGI (CCRF-CEM leukemia) was 3.82 µM and the GI50 (SF-268 CNS) was 685 nM. The TGI (SF-268 CNS) was 3.55 µM, the GI50 (IGROV1 ovarian) was 617 nM and the TGI (IGROV1 ovarian) was 3.88 µM. The GI50 (LOX IMVI melanoma) was 436 nM, the TGI (LOX IMVI melanoma) was 1630 nM and the GI50 (SNB-19 CNS) was 531 nM. It also gave a TGI (SNB-19 CNS) of 4.28 µM, a GI50 (SK-OV-3 ovarian) of 736 nM and a TGI (SK-OV-3 ovarian) of 5.17 µM. For the same compound, the GI50 (SF-295 CNS) was 527 nM, the TGI (SF-295 CNS) was 1970 nM and the GI50 (MCF7 breast) was 452 nM. For the same compound, the TGI (MCF7 breast) was 3.05 µM, the GI50 (HCC-2998 colon) was 465 nM and the TGI (HCC-2998 colon) was 2210 nM. The GI50 (HCT-116 colon) was 330 nM, the TGI (HCT-116 colon) was 1190 nM and the GI50 (COLO 205 colon) was 1260 nM. It also gave a TGI (COLO 205 colon) of 2840 nM, a GI50 (NCI-H522 lung) of 331 nM and a TGI (NCI-H522 lung) of 2010 nM. For the same compound, the GI50 (HOP-92 NSCLC) was 145 nM, the TGI (HOP-92 NSCLC) was 454 nM and the GI50 (MDA-MB-231 breast) was 676 nM. It also gave a TGI (MDA-MB-231 breast) of 3.05 µM, a GI50 (UACC-62 melanoma) of 359 nM and a TGI (UACC-62 melanoma) of 1460 nM. The GI50 (SF-539 CNS) was 603 nM, the TGI (SF-539 CNS) was 2170 nM and the GI50 (UO-31 renal) was 388 nM. The TGI (UO-31 renal) was 1790 nM, the GI50 (CAKI-1 renal) was 483 nM and the TGI (CAKI-1 renal) was 2240 nM. For the same compound, the GI50 (OVCAR-8 ovarian) was 1120 nM, the TGI (OVCAR-8 ovarian) was 11.2 µM and the GI50 (M14 melanoma) was 660 nM. For the same compound, the TGI (M14 melanoma) was 2540 nM, the GI50 (OVCAR-4 ovarian) was 429 nM and the TGI (OVCAR-4 ovarian) was 2930 nM. For the same compound, the GI50 (NCI-H460 lung) was 398 nM, the TGI (NCI-H460 lung) was 1970 nM and the GI50 (HCT-15 colon) was 466 nM. For the same compound, the TGI (HCT-15 colon) was 2030 nM, the GI50 (786-0 renal) was 409 nM and the TGI (786-0 renal) was 1690 nM. The GI50 (SK-MEL-28 melanoma) was 423 nM, the TGI (SK-MEL-28 melanoma) was 1670 nM and the GI50 (KM12 colon) was 466 nM. For the same compound, the TGI (KM12 colon) was 2120 nM, the GI50 (MALME-3M melanoma) was 367 nM and the TGI (MALME-3M melanoma) was 1630 nM. It also gave a GI50 (SK-MEL-2 melanoma) of 434 nM, a TGI (SK-MEL-2 melanoma) of 2030 nM and a GI50 (RXF 393 renal) of 458 nM. The TGI (RXF 393 renal) was 1790 nM, the GI50 (HS 578T breast) was 675 nM and the TGI (HS 578T breast) was 3.34 µM. It also gave a GI50 (SR leukemia) of 350 nM, a TGI (SR leukemia) of 1910 nM and a GI50 (SW-620 colon) of 490 nM. It also gave a TGI (SW-620 colon) of 2390 nM, a GI50 (MDA-MB-435) of 524 nM and a TGI (MDA-MB-435) of 2290 nM. The GI50 (OVCAR-5 ovarian) was 1790 nM, the TGI (OVCAR-5 ovarian) was 6.83 µM and the GI50 (RPMI-8226 leukemia) was 263 nM. It also gave a TGI (RPMI-8226 leukemia) of 632 nM, a GI50 (PC-3 prostate) of 317 nM and a TGI (PC-3 prostate) of 1190 nM. For the same compound, the GI50 (U251 CNS) was 452 nM, the TGI (U251 CNS) was 3.55 µM and the GI50 (BT-549 breast) was 415 nM. The TGI (BT-549 breast) was 1400 nM, the GI50 (TK-10 renal) was 808 nM and the TGI (TK-10 renal) was 5.49 µM. For the same compound, the GI50 (NCI-H23 lung) was 304 nM, the TGI (NCI-H23 lung) was 989 nM and the GI50 (ACHN renal) was 525 nM. It also gave a TGI (ACHN renal) of 2560 nM, a GI50 (A498 renal) of 244 nM and a TGI (A498 renal) of 973 nM. The GI50 (DU-145 prostate) was 693 nM, the TGI (DU-145 prostate) was 8.47 µM and the GI50 (NCI/ADR-RES ovarian) was 403 nM. The TGI (NCI/ADR-RES ovarian) was 1820 nM, the GI50 (SK-MEL-5 melanoma) was 315 nM and the TGI (SK-MEL-5 melanoma) was 1100 nM. It also gave a GI50 (A549 NSCLC) of 779 nM, a TGI (A549 NSCLC) of 7.46 µM and a GI50 (SN12C renal) of 447 nM. It also gave a TGI (SN12C renal) of 2520 nM, a GI50 (NCI-H226 lung) of 623 nM and a TGI (NCI-H226 lung) of 2500 nM. For the same compound, the GI50 (OVCAR-3 ovarian) was 402 nM, the TGI (OVCAR-3 ovarian) was 1750 nM and the GI50 (T-47D breast) was 307 nM. It also gave a TGI (T-47D breast) of 1850 nM, a GI50 (HOP-62 NSCLC) of 911 nM and a TGI (HOP-62 NSCLC) of 3.55 µM. The GI50 (EKVX NSCLC) was 558 nM and the TGI (EKVX NSCLC) was 3.54 µM.
